These results are taken from patent US20180273897A1, “MODIFIED T-CELLS HAVING ANTI-FUGETACTIC PROPERTIES AND USES THEREOF” (THE GENERAL HOSPITAL CORPORATION, priority 2015, published 2018).

For the assay, the system named is human CD3+ T cells. Conditions: T cells pre-incubated with 0.01 μM to 10 mM AMD3100; harvested after 3 h; anti-fugetactic at lower, fugetactic at higher concentrations. The method, then: For quantitative transmigration assays, purified human CD3^+ T cells (approximately 2×10^4 cells) are added to the upper chamber of a Transwell® insert in each well, to a total volume of 150 μl of Iscove's modified medium. […] To determine the anti-fugetactic concentration of AMD3100, the T cells are incubated with 0.01 μM to 10 mM AMD3100 prior to addition to the chamber. Cells are harvested from the lower chamber after 3 h, and cell counts are performed using a hemocytometer.

Take `c1cc(CN2CCCNCCNCCCNCC2)ccc1CN1CCCNCCNCCCNCC1` [AMD3100, 1,1′[1,4-phenylenebis(methylene)]bis [1,4,8,11-tetraazacyclotetradecane]]: the “Effect on T cell migration away from tumor cells (anti-fugetactic versus fugetactic)” value is reported as “bimodal effect”.
